{"source": "patent US20100040679A1", "about": "“Compositions for Reducing Nicotine Withdrawal Symptoms and/or Tobacco Usage” (priority 2006, published 2010)", "key": {"[1]": {"conditions": "humans; estimated by Benowitz 1983; cited from earlier work"}, "[2]": {"test_system": "mecamylamine-precipitated nicotine withdrawal syndrome", "assay": "previous study of mecamylamine-precipitated nicotine withdrawal syndrome", "assay_type": "in vivo", "conditions": "dose 1 mg/kg, given alone", "experimental": "(§1) All subjects were rendered nicotine dependent by seven days infusion with 9 mg/kg/day nicotine bitartrate (3.15 mg/kg expressed as the base) in saline from the subcutaneous minipump. On the 7th day of infusion, each subject received two subcutaneous injections. Group 1 (n=8) received two injections of saline vehicle only. Group 2 (n=7) received a subcutaneous injection of saline and an subcutaneous injection of 1 mg/kg cotinine in saline. Group 3 (n=8) received a subcutaneous injection of saline and a subcutaneous injection of 1 mg/kg dextromethorphan. Group 4 (n=7) received a subcutaneous injection of 1 mg/kg cotinine and 1 mg/kg dextromethorphan. […] These low doses were intended to prevent any ceiling effect which may have masked the benefit of adding a second medication. The injection volumes in every case were 1 mg/kg."}, "[3]": {"test_system": "nicotine dependent rats", "assay": "mecamylamine-precipitated nicotine abstinence signs in nicotine dependent rats", "assay_type": "in vivo, Sprague-Dawley rats", "conditions": "1 mg/kg subcutaneous; 30 minutes; FIG. 2", "experimental": "A study was conducted to compare the effects of low doses of dextromethorphan (1 mg/kg) alone, cotinine (1 mg/kg) alone, and a dextromethorphan plus cotinine combination (1 mg/kg each) versus placebo (saline) for their effect on nicotine dependence. The subjects were 30 male Sprague-Dawley rats, weighing between 282-372 grams each. All subjects were implanted subcutaneously with an Alza 2ML1 osmotic minipump under aseptic conditions and halothane anesthesia.\nas §1, with “[…]. […]” for “mg/kg.”"}, "[4]": {"conditions": "rat brain after peripheral nicotine administration; Dwoskin et al 1999; cited from earlier work"}}, "data": [{"compound": "CN1CCCC1c1cccnc1", "note": "(centres unmarked) [nicotine]", "values": [{"measurement": "systemically absorbed nicotine metabolized to cotinine", "setting": "[1]", "result": 86, "unit": "%"}]}, {"compound": "COc1ccc2c(c1)[C@]13CCCC[C@@H]1[C@H](C2)N(C)CC3", "note": "[dextromethorphan, reference compound]", "values": [{"measurement": "effects in reducing mecamylamine-precipitated nicotine withdrawal syndrome", "setting": "[2]", "result": "only minimal effects"}]}, {"compound": "CN1C(=O)CC[C@H]1c1cccnc1", "note": "[cotinine]", "values": [{"measurement": "Miscellaneous Less-Frequent Signs (category of nicotine abstinence signs)", "setting": "[3]", "result": "tied for lowest"}, {"measurement": "abundance as nicotine metabolite in brain", "setting": "[4]", "result": "most abundant metabolite in rat brain"}, {"measurement": "effects in reducing mecamylamine-precipitated nicotine withdrawal syndrome", "setting": "[2]", "result": "only minimal effects"}]}]}
